The values below come from patent US4546079A, “Streptomyces species and process for producing antibiotic” (Bayer Aktiengesellschaft, priority 1981, dated 1985).

*1 amine or outer side, *2 acyl side, *3 side chain or, on linkers, in order; H or OH if unused. Where a SMILES comes first, the peptide text is derived from it. [ ]: non-standard residue; d: D form. ξ: configuration not given here. X1 = Cn1c(=NC(N)=O)ccn(C2SC(C(O)C(N[*:1])C(=O)[*:2])C(O)C2O)c1=O; ξOrn(N(OH)Ac) = CC(=O)N(O)CCCC(N)C(=O)O; ξS = NC(CO)C(=O)O

Broadly, the solubility is the dissolved amount per volume that the medium holds.

The subject of one series is E. coli 205 Kn. Briefly: animal test (mice), ED100. In kind it is in vivo. The settings on record: Escherichia coli, sc, i.p. infection, s.c. treatment, all animals survive, read-out: ED100 after intra-peritoneal infection and subcutaneous treatment. How it is done:
(§1) | ED100 after intra-peritoneal | infection and subcutaneous The animals were infected with a quantity of bacteria, which quantity led to the death of the control animals during the course of 24 hours. The ED100 was the dose which allowed all infected and treated animals to survive.

A further series relates to E. coli Neumann. The experiment in a line: animal test (mice), ED100. In kind it is in vivo. The settings on record: Escherichia coli, sc, i.p. infection, s.c. treatment, all animals survive, read-out: ED100 after intra-peritoneal infection and subcutaneous treatment. How it is done:
as §1

In a further series the test system is Klebsiella pneumoniae 63. Briefly: animal test (mice), ED100. In kind it is in vivo. The settings on record: sc, i.p. infection, s.c. treatment, all animals survive, read-out: ED100 after intra-peritoneal infection and subcutaneous treatment. How it is done:
as §1

The subject of another series is Staphylococcus aureus. Briefly: animal test (mice), ED100. Type of series: in vivo. The following applies: sc, i.p. infection, s.c. treatment, all animals survive, read-out: ED100 after intra-peritoneal infection and subcutaneous treatment. How it is done: as §1
For the next series, the system named is E. coli Newmann. The experiment in a line: ED100 (complete cure) in the white mouse. The settings on record: Escherichia coli, sc, 0.5 h, once, 30 minutes after infection, subcutaneously. Type of series: in vivo. How it is done: An ED100 (complete cure) is found in vivo for the white mouse, at 3 mg of antibiotic/kg of body weight, in the case of infection with E. coli […]; therapy: application once, 30 minutes after infection, subcutaneously.

In a further series the test system is E. coli 14. The experiment in a line: agar dilution test (NCCLS), in vitro activity. In kind it is cell-based.
In another series the test system is E. coli C 165. The experiment in a line: agar dilution test (NCCLS), in vitro activity. In kind it is cell-based. A general note: In agar dilution the substance is mixed into plates at graded concentrations.
For series [1] the following is noted: pH 7.
A short description of the next series: physchem. The settings on record: organic solvent or mixture.

As for `CC(=O)N(O)CCCC(N)C(=O)NC(CCCN(O)C(C)=O)C(=O)NC(CCCN(O)C(C)=O)C(=O)NC(CO)C(=O)NC(C(=O)O)C(O)C1SC(n2ccc(=NC(N)=O)n(C)c2=O)C(O)C1O` (stereo not drawn) [BAY i 3265 component B] (H-[ξOrn(N(OH)Ac)][ξOrn(N(OH)Ac)][ξOrn(N(OH)Ac)][ξS][X1]-OH), the ED100 with E. coli 205 Kn was 0.1 mg/kg; with E. coli Neumann, 0.5 mg/kg; in the series on Klebsiella pneumoniae 63, 0.2 mg/kg; in the series with Staphylococcus aureus it was 0.6 mg/kg; with E. coli Newmann, 3 mg/kg. Moreover, the in vitro activity entry in the series with E. coli 14 and in the series with E. coli C 165 was “in vitro activity is found” each time. Also, the solubility in water result in series [1] was “unlimited solubility”. Also, the solubility is less than 100 µg/mL in the series “physchem” (chloroform); less than 10000 µg/mL in the series “physchem” (dimethylformamide); less than 10000 µg/mL in the series “physchem” (dimethylsulphoxide); less than 100 µg/mL in the series “physchem” (ether); less than 100 µg/mL in “physchem” (ethyl acetate); less than 10000 µg/mL in “physchem” (methanol). For the same compound, in the series “physchem” (petroleum ether), the solubility was less than 100 µg/mL.
